From US20230398130A1, “METHODS AND COMPOSITIONS FOR DIFFERENTIATING STEM CELLS” (Massachusetts Institute of Technology, priority 2020, published 2023)

Legend:
ISC-enriched organoids [1] = test: Primary screen, 384-well 2.5-D organoid differentiation (ENR+CD, 6 days, Target Selective Inhibitor Library, vs whole-plate median): ATP (CellTiter-Glo 3D, CTG); details: for Z.CTG: standard z score of FC; for SSMD.CTG: strictly standardized mean difference; for SSMD.CTG / Dose.FC.CTG: primary screen; for Dose.FC.CTG: FC vs plate median; for Dose.FC.CTG (log 2 fold change, ATP): vs plate median
ISC-enriched organoids [2] = test: Primary screen, 384-well 2.5-D organoid differentiation (ENR+CD, 6 days): carbachol-induced lysozyme secretion (LYZ.S); type: cell-based, murine; details: for Z.LYZ.S: standard z score; for Z.LYZ.S / SSMD.LYZ.S / Dose.FC.LYZ.S: primary screen; for SSMD.LYZ.S: strictly standardized mean difference; for Dose.FC.LYZ.S: FC vs plate median; for Dose.FC.LYZ.S (log 2 fold change, carbachol-induced lysozyme secretion): vs plate median
From the text: (§1) High-throughput screening.

ISC-enriched organoids [3] = test: Primary screen, 384-well 2.5-D organoid differentiation (ENR+CD, 6 days): basal lysozyme secretion (LYZ.NS); type: cell-based, murine; details: for SSMD.LYZ.NS: strictly standardized mean difference; for SSMD.LYZ.NS / Dose.FC.LYZ.NS: primary screen; for Dose.FC.LYZ.NS: FC vs plate median; for Z.LYZ.NS: standard z score of FC; for Dose.FC.LYZ.NS (log 2 fold change, basal lysozyme secretion): vs plate median
From the text: as §1

[4] = 1st of the 4 dose lines of the treatment (dose not given)
[5] = 2nd of the 4 dose lines of the treatment (dose not given)
[6] = 3rd of the 4 dose lines of the treatment (dose not given)
[7] = 4th of the 4 dose lines of the treatment (dose not given)

| SMILES | Z.CTG (ISC-enriched organoids [1]; Dose 0.08 uM) | Z.CTG (ISC-enriched organoids [1]; Dose 0.40 uM) | Z.CTG (ISC-enriched organoids [1]; Dose 2.00 uM) | Z.CTG (ISC-enriched organoids [1]; Dose 10.00 uM) | Dose.FC.CTG (ISC-enriched organoids [1]; Dose 0.08 uM) | Dose.FC.CTG (ISC-enriched organoids [1]; Dose 0.40 uM) | Dose.FC.CTG (ISC-enriched organoids [1]; Dose 2.00 uM) | Dose.FC.CTG (ISC-enriched organoids [1]; Dose 10.00 uM) | Dose.FC.LYZ.S (ISC-enriched organoids [2]; Dose 0.08 uM) | Dose.FC.LYZ.S (ISC-enriched organoids [2]; Dose 0.40 uM) | Dose.FC.LYZ.S (ISC-enriched organoids [2]; Dose 2.00 uM) | Dose.FC.LYZ.S (ISC-enriched organoids [2]; Dose 10.00 uM) | Dose.FC.LYZ.NS (ISC-enriched organoids [3]; Dose 0.08 uM) | Z.LYZ.NS (ISC-enriched organoids [3]; Dose 0.08 uM) | Dose.FC.LYZ.NS (ISC-enriched organoids [3]; Dose 0.40 uM) | Z.LYZ.NS (ISC-enriched organoids [3]; Dose 0.40 uM) | Dose.FC.LYZ.NS (ISC-enriched organoids [3]; Dose 2.00 uM) | Z.LYZ.NS (ISC-enriched organoids [3]; Dose 2.00 uM) | Dose.FC.LYZ.NS (ISC-enriched organoids [3]; Dose 10.00 uM) | Z.LYZ.NS (ISC-enriched organoids [3]; Dose 10.00 uM) | further results |
| --- | --- | --- | --- | --- | --- | --- | --- | --- | --- | --- | --- | --- | --- | --- | --- | --- | --- | --- | --- | --- | --- |
| O=C(O)c1ccc(Nc2ncc3c(n2)-c2ccc(Cl)cc2C(c2c(F)cccc2F)=NC3)cc1 [MLN8054] | 0.063 | 0.033 | −1.111 | −1.191 | – | – | – | – | – | – | – | – | – | – | – | – | – | – | – | – | SSMD.CTG (ISC-enriched organoids [1]; [4]): 0.080; SSMD.CTG (ISC-enriched organoids [1]; [5]): 0.035; SSMD.CTG (ISC-enriched organoids [1]; [6]): −0.959; SSMD.CTG (ISC-enriched organoids [1]; [7]): −1.480; Z.LYZ.S (ISC-enriched organoids [2]; [4]): 0.274; Z.LYZ.S (ISC-enriched organoids [2]; [5]): 1.081; Z.LYZ.S (ISC-enriched organoids [2]; [6]): −0.562; Z.LYZ.S (ISC-enriched organoids [2]; [7]): −1.274; SSMD.LYZ.S (ISC-enriched organoids [2]; [4]): 0.241; SSMD.LYZ.S (ISC-enriched organoids [2]; [5]): 0.554; SSMD.LYZ.S (ISC-enriched organoids [2]; [6]): −0.486; SSMD.LYZ.S (ISC-enriched organoids [2]; [7]): −0.964; SSMD.LYZ.NS (ISC-enriched organoids [3]; [4]): 0.618; SSMD.LYZ.NS (ISC-enriched organoids [3]; [5]): 0.061; SSMD.LYZ.NS (ISC-enriched organoids [3]; [6]): −0.713; SSMD.LYZ.NS (ISC-enriched organoids [3]; [7]): −0.870 |
| OCCn1cc(-c2cnc3nnn(Cc4ccc5ncccc5c4)c3n2)cn1 [PF-04217903] | 0.326 | 0.616 | −0.122 | 0.276 | 0.136 log 2 fold change | 0.258 log 2 fold change | −0.051 log 2 fold change | 0.116 log 2 fold change | 0.110 log 2 fold change | 0.265 log 2 fold change | 0.049 log 2 fold change | 0.127 log 2 fold change | 0.085 log 2 fold change | 0.742 | 0.161 log 2 fold change | 1.404 | 0.122 log 2 fold change | 1.060 | 0.071 log 2 fold change | 0.617 | – |
| COc1ccccc1S(=O)(=O)Nc1ccc2c(c1)CN(C)C(=O)N2 [PFI-1 (PF-6405761)] | 0.340 | 0.931 | 0.770 | −0.929 | 0.142 log 2 fold change | 0.390 log 2 fold change | 0.322 log 2 fold change | −0.389 log 2 fold change | 0.061 log 2 fold change | 0.104 log 2 fold change | −0.117 log 2 fold change | −0.194 log 2 fold change | 0.062 log 2 fold change | 0.538 | 0.079 log 2 fold change | 0.691 | −0.098 log 2 fold change | −0.852 | −0.066 log 2 fold change | −0.573 | – |
| C[C@H](Cn1cnc2c(N)ncnc21)OCP(=O)(O)O [Tenofovir] | – | – | – | – | – | – | – | – | – | – | – | – | – | – | – | – | – | – | – | – | Z.CTG (standard z score) (ISC-enriched organoids [1]; dose 0.08 uM): 0.045; Dose.FC.CTG (log 2 fold change, ATP) (ISC-enriched organoids [1]; dose 0.08 uM): 0.019; Z.CTG (standard z score) (ISC-enriched organoids [1]; dose 0.40 uM): −0.200; Dose.FC.CTG (log 2 fold change, ATP) (ISC-enriched organoids [1]; dose 0.40 uM): −0.084; Z.CTG (standard z score) (ISC-enriched organoids [1]; dose 2.00 uM): −0.308; Dose.FC.CTG (log 2 fold change, ATP) (ISC-enriched organoids [1]; dose 2.00 uM): −0.129; Z.CTG (standard z score) (ISC-enriched organoids [1]; dose 10.00 uM): −0.804; Dose.FC.CTG (log 2 fold change, ATP) (ISC-enriched organoids [1]; dose 10.00 uM): −0.337; Dose.FC.LYZ.S (log 2 fold change, carbachol-induced lysozyme secretion) (ISC-enriched organoids [2]; dose 0.08 uM): 0.045; Dose.FC.LYZ.S (log 2 fold change, carbachol-induced lysozyme secretion) (ISC-enriched organoids [2]; dose 0.40 uM): −0.080; Dose.FC.LYZ.S (log 2 fold change, carbachol-induced lysozyme secretion) (ISC-enriched organoids [2]; dose 2.00 uM): −0.171; Dose.FC.LYZ.S (log 2 fold change, carbachol-induced lysozyme secretion) (ISC-enriched organoids [2]; dose 10.00 uM): −0.271; Z.LYZ.NS (standard z score) (ISC-enriched organoids [3]; dose 0.08 uM): 0.673; Dose.FC.LYZ.NS (log 2 fold change, basal lysozyme secretion) (ISC-enriched organoids [3]; dose 0.08 uM): 0.077; Z.LYZ.NS (standard z score) (ISC-enriched organoids [3]; dose 0.40 uM): −0.662; Dose.FC.LYZ.NS (log 2 fold change, basal lysozyme secretion) (ISC-enriched organoids [3]; dose 0.40 uM): −0.076; Z.LYZ.NS (standard z score) (ISC-enriched organoids [3]; dose 2.00 uM): −1.153; Dose.FC.LYZ.NS (log 2 fold change, basal lysozyme secretion) (ISC-enriched organoids [3]; dose 2.00 uM): −0.132; Z.LYZ.NS (standard z score) (ISC-enriched organoids [3]; dose 10.00 uM): −1.899; Dose.FC.LYZ.NS (log 2 fold change, basal lysozyme secretion) (ISC-enriched organoids [3]; dose 10.00 uM): −0.218 |
